The structures appear in SMILES notation. Some results are limits rather than exact numbers.

For assay [1], the system named is MIA-PaCa-2 cells. Briefly: Cancer cell proliferation inhibition (Cell Counting Kit-8), pancreatic cancer cell line. It is filed as cell-based. Conditions: Homo sapiens, MIA PaCa-2, 264 h, 1000 nM, cultured seven to 11 days; read-out: % inhibition rate MIA-Paca2. Summed up:
(§1)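 CCK-8 readout after 7–11 day culture with 1000 nM compound; seeding 100–1,000 cells/well in 10% FBS medium (RPMI1640, McCoy's 5a, L-15 or DMEM). % inhibition vs untreated control.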

The test system of assay [2] is Lovo cells. Briefly: Cancer cell proliferation inhibition (Cell Counting Kit-8), colorectal cancer cell line. It is filed as cell-based. Conditions: 1000 nM, cultured seven to 11 days; for inhibition at 1 µM: Homo sapiens, LoVo, 264 h, read-out: % inhibition rate LoVo; for % inhibition rate LoVo: 1 µM. A digest of the protocol: as §1
Assay [3] deals with G401 cells. As to the kind of experiment: Cancer cell proliferation inhibition (Cell Counting Kit-8), rhabdoid tumor cell line. It is filed as cell-based. The following applies: 1000 nM, cultured seven to 11 days; for inhibition at 1 µM: Homo sapiens, G-401, 264 h, read-out: % inhibition rate G401; for % inhibition rate G401: 1 µM. Summed up: (§2)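 Single 1000 nM dose of test substance, applied to cells seeded at 100–1,000 per well in 10% FBS medium, then culture for seven to 11 days. CCK-8 read-out; inhibition rate expressed as percent relative to untreated control.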
(Formazan colour is commonly taken as a measure of viable cells.)

Assay [4] concerns the target EZH1 (Homo sapiens, UniProt Q92800). Briefly: AlphaLISA enzyme activity inhibition, EZH1. The class given is biochemical. The following applies: for inhibition at 0.005 µM: 5nM test substance; for inhibition at 0.01 µM: 10nM test substance. Summed up: (§3)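 Enzyme inhibition rate was calculated relative to DMSO from AlphaLISA signal, with acceptor beads added after a 2 h methylation reaction and donor beads 1 h later. Each enzyme, EZH1 or EZH2, was pre-mixed with compound (final 5 nM or 10 nM) in Tris buffer pH 8.0 before histone H3 peptide and SAM initiated the reaction.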

Assay [5] concerns the target EZH2 (Homo sapiens, UniProt Q15910). As to the kind of experiment: AlphaLISA enzyme activity inhibition, EZH2. The class given is biochemical. Conditions: for inhibition at 0.005 µM: 5nM test substance; for inhibition at 0.01 µM: 10nM test substance. A digest of the protocol: as §3
(Bead proximity is the source of the signal in Alpha formats.)

Assay [6] concerns SW-13 cells. Briefly: Cancer cell proliferation inhibition (Cell Counting Kit-8), adrenal cancer cell line. The class given is cell-based. The following applies: Homo sapiens, SW13, 264 h, 1000 nM, cultured seven to 11 days; read-out: % inhibition rate SW-13. Summed up: as §1
For assay [7], the system named is MKN-45 cells. Briefly: Cancer cell proliferation inhibition (Cell Counting Kit-8), gastric cancer cell line. It is filed as cell-based. The following applies: Homo sapiens, MKN-45, 264 h, 1000 nM, cultured seven to 11 days; read-out: % inhibition rate MKN -45. A digest of the protocol: as §2
For assay [8], the system named is NCI-H1299 cells. Briefly: Cancer cell proliferation inhibition (Cell Counting Kit-8), lung cancer cell line. The class given is cell-based. Conditions: Homo sapiens, NCI-H1299, 264 h, 1000 nM, cultured seven to 11 days; read-out: % inhibition rate NCI-H129 9. A digest of the protocol:
as §1

EZH2, sequence (Q15910 whole entry, species assumed): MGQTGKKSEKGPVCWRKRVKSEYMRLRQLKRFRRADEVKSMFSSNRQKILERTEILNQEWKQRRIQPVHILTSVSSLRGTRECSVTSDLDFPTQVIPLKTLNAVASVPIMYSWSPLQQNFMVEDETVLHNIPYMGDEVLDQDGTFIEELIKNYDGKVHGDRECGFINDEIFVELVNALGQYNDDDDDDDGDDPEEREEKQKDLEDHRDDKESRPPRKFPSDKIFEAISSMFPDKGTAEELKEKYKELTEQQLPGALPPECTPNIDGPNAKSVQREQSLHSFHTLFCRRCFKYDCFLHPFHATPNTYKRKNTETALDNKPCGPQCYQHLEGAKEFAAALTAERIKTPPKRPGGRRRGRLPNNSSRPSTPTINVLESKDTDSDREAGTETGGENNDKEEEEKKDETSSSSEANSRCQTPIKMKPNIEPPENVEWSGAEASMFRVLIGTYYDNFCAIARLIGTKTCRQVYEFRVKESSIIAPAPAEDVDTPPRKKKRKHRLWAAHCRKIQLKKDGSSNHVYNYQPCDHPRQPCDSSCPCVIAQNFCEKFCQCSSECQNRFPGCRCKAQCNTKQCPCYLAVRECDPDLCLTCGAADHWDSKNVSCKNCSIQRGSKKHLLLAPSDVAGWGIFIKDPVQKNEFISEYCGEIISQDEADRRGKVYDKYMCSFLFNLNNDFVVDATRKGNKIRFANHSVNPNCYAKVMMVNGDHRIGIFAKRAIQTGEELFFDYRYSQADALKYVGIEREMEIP
EZH2, sequence (O75530 whole entry partner, species assumed): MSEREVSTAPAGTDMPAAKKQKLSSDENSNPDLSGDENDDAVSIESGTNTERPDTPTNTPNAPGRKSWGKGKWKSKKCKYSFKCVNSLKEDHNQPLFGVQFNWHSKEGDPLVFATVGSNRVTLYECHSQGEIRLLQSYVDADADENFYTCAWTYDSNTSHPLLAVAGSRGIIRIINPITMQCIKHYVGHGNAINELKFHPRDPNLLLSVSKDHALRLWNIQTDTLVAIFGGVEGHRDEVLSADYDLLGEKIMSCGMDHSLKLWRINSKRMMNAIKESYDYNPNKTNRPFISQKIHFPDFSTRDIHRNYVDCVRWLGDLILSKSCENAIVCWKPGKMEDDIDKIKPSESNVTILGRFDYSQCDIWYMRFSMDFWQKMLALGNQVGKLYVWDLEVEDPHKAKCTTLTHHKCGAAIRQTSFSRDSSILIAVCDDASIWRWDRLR
EZH2, sequence (Q15022 whole entry partner, species assumed): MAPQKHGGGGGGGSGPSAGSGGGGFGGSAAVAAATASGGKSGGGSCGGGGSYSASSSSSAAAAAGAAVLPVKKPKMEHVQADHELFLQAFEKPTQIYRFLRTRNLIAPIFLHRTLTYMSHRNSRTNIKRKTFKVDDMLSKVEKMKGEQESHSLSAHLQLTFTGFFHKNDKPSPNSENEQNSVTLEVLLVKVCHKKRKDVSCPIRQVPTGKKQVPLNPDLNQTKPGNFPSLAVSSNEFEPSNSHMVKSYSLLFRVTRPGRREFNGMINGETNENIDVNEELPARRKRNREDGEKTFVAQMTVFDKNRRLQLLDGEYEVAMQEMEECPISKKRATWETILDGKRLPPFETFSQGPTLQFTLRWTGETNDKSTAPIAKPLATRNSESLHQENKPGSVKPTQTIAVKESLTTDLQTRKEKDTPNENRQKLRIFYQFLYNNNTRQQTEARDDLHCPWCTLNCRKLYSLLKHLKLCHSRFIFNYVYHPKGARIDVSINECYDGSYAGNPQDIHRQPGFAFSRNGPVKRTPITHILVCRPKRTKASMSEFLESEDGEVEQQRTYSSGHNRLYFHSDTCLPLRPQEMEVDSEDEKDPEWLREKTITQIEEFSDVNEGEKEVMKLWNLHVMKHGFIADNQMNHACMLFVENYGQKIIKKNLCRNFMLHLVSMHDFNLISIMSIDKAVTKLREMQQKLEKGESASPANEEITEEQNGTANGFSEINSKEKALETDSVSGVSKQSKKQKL
EZH1, sequence (Q92800 whole entry, species assumed): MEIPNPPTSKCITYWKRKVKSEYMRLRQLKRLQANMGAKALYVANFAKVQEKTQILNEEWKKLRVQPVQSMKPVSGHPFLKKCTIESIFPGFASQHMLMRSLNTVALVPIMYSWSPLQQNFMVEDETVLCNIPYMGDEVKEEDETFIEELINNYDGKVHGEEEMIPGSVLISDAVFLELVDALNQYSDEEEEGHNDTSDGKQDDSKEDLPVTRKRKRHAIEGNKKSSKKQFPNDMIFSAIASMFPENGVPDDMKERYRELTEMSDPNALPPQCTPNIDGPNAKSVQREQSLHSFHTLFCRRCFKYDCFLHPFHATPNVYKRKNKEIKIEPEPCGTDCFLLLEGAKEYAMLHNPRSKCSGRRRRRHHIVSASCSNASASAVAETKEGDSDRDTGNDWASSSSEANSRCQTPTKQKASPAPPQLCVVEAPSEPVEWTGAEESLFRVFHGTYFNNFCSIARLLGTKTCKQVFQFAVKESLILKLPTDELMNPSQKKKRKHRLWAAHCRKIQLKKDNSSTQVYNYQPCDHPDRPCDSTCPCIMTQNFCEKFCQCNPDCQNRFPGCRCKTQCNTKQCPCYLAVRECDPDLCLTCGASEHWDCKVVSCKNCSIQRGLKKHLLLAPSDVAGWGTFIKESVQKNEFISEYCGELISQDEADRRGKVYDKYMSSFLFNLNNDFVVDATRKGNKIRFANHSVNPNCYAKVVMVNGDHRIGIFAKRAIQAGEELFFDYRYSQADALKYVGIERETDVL
EZH1, sequence (O75530 whole entry partner, species assumed): as the sequence (O75530 whole entry partner, species assumed) above
EZH1, sequence (Q15022 whole entry partner, species assumed): as the sequence (Q15022 whole entry partner, species assumed) above

As to `CSc1cc(C)[nH]c(=O)c1CNC(=O)c1cc(-c2ccc(N3CCCCC3)nc2)c2c(c1C)OC(C)(C1CCN(CC(F)(F)F)CC1)O2` (stereo not shown) [Compound 91, 2,4-dimethyl-N-((6-methyl-4-(methylthio)-2-oxo-1,2-dihydropyridin-3-yl)methyl)-7-(6-(piperidin-1-yl)pyridin-3-yl)-2-(1-(2,2,2-trifluoroethyl)piperidin-4-yl)benzo[d][1,3]dioxole-5-carboxamide], the inhibition at 1 µM in assay [1] was at most 30%; in assay [2] it was at least 70%; in assay [3], 30 to 70%; in assay [6], at most 30%; in assay [7], at most 30%; in assay [8], at most 30%. In addition, the inhibition at 0.005 µM in assay [4] came out at 24.5%; in assay [5], 47.4%. Besides, the inhibition at 0.01 µM came out at 41% in assay [4] and 71.6% in assay [5].

For the compound `CSc1cc(C)[nH]c(=O)c1CNC(=O)c1cc(-c2ccc(N3CCOCC3)cc2)c2c(c1C)OC(C)([C@H]1CC[C@H](N(C)C)CC1)O2` (relative stereo) [Compound 9, 2-(trans-4-(dimethylamino)cyclohexyl)-2,4-dimethyl-N-((6-methyl-4-(methylthio)-2-oxo-1,2-dihydropyridin-3-yl)methyl)-7-(4-morpholinophenyl)benzo[d][1,3]dioxole-5-carboxamide], the inhibition at 1 µM was at most 30% in assay [1]; 30 to 70% in assay [2]; 30 to 70% in assay [3]; 30 to 70% in assay [6]; at most 30% in assay [7]; at most 30% in assay [8]. Moreover, the inhibition at 0.005 µM in assay [4] came out at 86.1%; in assay [5] it was 98.6%.

In the case of `CSc1cc(C)[nH]c(=O)c1CNC(=O)c1cc(-c2cnc(N3CCOCC3)nc2)c2c(c1C)OC(C)(C1CCN(CC(F)(F)F)CC1)O2` (stereo not shown) [Compound 68, 2,4-dimethyl-N-((6-methyl-4-(methylthio)-2-oxo-1,2-dihydropyridin-3-yl)methyl)-7-(2-morpholinopyrimidin-5-yl)-2-(1-(2,2,2-trifluoro)piperidin-4-yl)benzo[d][1,3]dioxole-5-carboxamide], the inhibition at 1 µM in assay [1] is at most 30%; in assay [2], at least 70%; in assay [3], at least 70%; in assay [6], 30 to 70%; in assay [7], 30 to 70%; in assay [8] it was at most 30%. For the same compound, the inhibition at 0.005 µM was 56.4% in assay [4] and 87.3% in assay [5]. In addition, the inhibition at 0.01 µM in assay [4] turned out to be 78.9%; in assay [5] it was 99.7%.

As to `CCN(C)c1ncc(-c2cc(C(=O)NCc3c(SC)cc(C)[nH]c3=O)c(C)c3c2OC(C)(C2CCN(CC(F)F)CC2)O3)cn1` (single isomer, unassigned) [Compound 81, 2-(1-(2,2-difluoroethyl)piperidin-4-yl)-7-(2-(ethyl(methyl)amino)pyrimidin-5-yl)-2,4-dimethyl-N-((6-methyl-4-(methylthio)-2-oxo-1,2-dihydropyridin-3-yl)methyl)benzo[d][1,3]dioxole-5-carboxamide], the inhibition at 1 µM is at most 30% in assay [1]; at least 70% in assay [2]; 30 to 70% in assay [6]; 30 to 70% in assay [7]; at most 30% in assay [8]. In addition, in assay [3], the “% inhibition rate G401” value is on record as “+++ (+++: ≥70%)”. Also, the inhibition at 0.005 µM worked out at 80.4% in assay [4] and 99.2% in assay [5]. For the same compound, the inhibition at 0.01 µM in assay [4] came to 90.8%; in assay [5] it was 99.8%.

Turning to `CSc1cc(C)[nH]c(=O)c1CNC(=O)c1cc(-c2c(C)noc2C)c2c(c1C)OC(C)([C@H]1CC[C@H](N(C)C)CC1)O2` (relative stereo) [Compound 13, 2-(trans-4-(dimethylamino)cyclohexyl)-7-(3,5-dimethylisoxazol-4-yl)-2,4-dimethyl-N-((6-methyl-4-(methylthio)-2-oxo-1,2-dihydropyridin-3-yl)methyl)benzo[d][1,3]dioxole-5-carboxamide], the inhibition at 1 µM was at most 30% in assay [1]; 30 to 70% in assay [2]; 30 to 70% in assay [3]; at most 30% in assay [6]; at most 30% in assay [7]; at most 30% in assay [8]. Moreover, the inhibition at 0.005 µM in assay [4] amounted to 53.7%; in assay [5], 97.6%.

`CCN1CCN(c2ncc(-c3cc(C(=O)NCc4c(SC)cc(C)[nH]c4=O)c(C)c4c3OC(C)(C3CCN(CC(F)(F)F)CC3)O4)cn2)CC1` (single isomer, unassigned) [Compound 76, 7-(2-(4-ethylpiperazin-1-yl)pyrimidin-5-yl)-2,4-dimethyl-N-((6-methyl-4-(methylthio)-2-oxo-1,2-dihydropyridin-3-yl)methyl)-2-(1-(2,2,2-trifluoroethyl)piperidin-4-yl)benzo[d][1,3]dioxole-5-carboxamide]: the inhibition at 1 µM in assay [1] was at most 30%; in assay [6], 30 to 70%; in assay [7], 30 to 70%; in assay [8], at most 30%. In assay [2], the “% inhibition rate LoVo” value is on record as “+++ (+++: ≥70%)”. Also, the “% inhibition rate G401” value in assay [3] is “+++ (+++: ≥70%)”. For the same compound, the inhibition at 0.005 µM is 79% in assay [4] and 99.5% in assay [5]. Moreover, the inhibition at 0.01 µM was 96.2% in assay [4] and 99.6% in assay [5].

In the case of `CSc1cc(C)[nH]c(=O)c1CNC(=O)c1cc(-c2ccsc2)c2c(c1C)OC(C)(C1CCC(N(C)C)CC1)O2` (stereo not shown) [Compound 42, 2-(4-(dimethylamino)cyclohexyl)-2,4-dimethyl-N-((6-methyl-4-(methylthio)-2-oxo-1,2-dihydropyridin-3-yl)methyl)-7-(thiophen-3-yl)benzo[d][1,3]dioxole-5-carboxamide], the inhibition at 1 µM in assay [1] was at most 30%; in assay [2], at least 70%; in assay [3] it was at least 70%; in assay [6], 30 to 70%; in assay [7], 30 to 70%; in assay [8], 30 to 70%. For the same compound, the results for the inhibition at 0.005 µM in assay [4] and in assay [5] were 59.6% and 90.5%, respectively.

Turning to `CCN1CCC(C2(C)Oc3c(-c4ccc(N5C[C@@H](C)O[C@@H](C)C5)nc4)cc(C(=O)NCc4c(SC)cc(C)[nH]c4=O)c(C)c3O2)CC1` (single isomer, unassigned) [Compound 49], the inhibition at 1 µM in assay [1] was at most 30%; in assay [3], 30 to 70%; in assay [6] it was 30 to 70%; in assay [7] it was at most 30%; in assay [8], 30 to 70%. For the same compound, the “% inhibition rate LoVo” value in assay [2] was “+++ (+++: ≥70%)”. For the same compound, the inhibition at 0.005 µM was determined as 78.8% in assay [4] and 99.2% in assay [5]. The inhibition at 0.01 µM stood at 92.4% in assay [4] and 99.5% in assay [5].

Consider `CSc1cc(C)[nH]c(=O)c1CNC(=O)c1cc(-c2ccc3occc3c2)c2c(c1C)OC(C)(C1CCN(CC(F)F)CC1)O2` (stereo not shown) [Compound 97, 7-(benzofuran-5-yl)-2-(1-(2,2-difluoroethyl)piperidin-4-yl)-2,4-dimethyl-N-((6-methyl-4-(methylthio)-2-oxo-1,2-dihydropyridin-3-yl)methyl)benzo[d][1,3]dioxole-5-carboxamide], for which the inhibition at 1 µM in assay [1] was at most 30%; in assay [2], at least 70%; in assay [3], 30 to 70%; in assay [6] it was at most 30%; in assay [7] it was 30 to 70%; in assay [8], at most 30%. Besides, the inhibition at 0.005 µM in assay [4] turned out to be 25.9%; in assay [5] it was 74.7%. Also, the inhibition at 0.01 µM was determined as 20.5% in assay [4] and 82.3% in assay [5].

As to `CSc1cc(C)[nH]c(=O)c1CNC(=O)c1cc(-c2ccc(N3CCOCC3)nc2)c2c(c1C)OC(C)(C1CCN(CC(F)(F)F)CC1)O2` (stereo not shown) [Compound 61, 2,4-dimethyl-N-((6-methyl-4-(methylthio)-2-oxo-1,2-dihydropyridin-3-yl)methyl)-7-(6-morpholinopyridin-3-yl)-2-(1-(2,2,2-trifluoro)piperidin-4-yl)benzo[d][1,3]dioxole-5-carboxamide], the inhibition at 1 µM is at most 30% in assay [1]; at least 70% in assay [2]; at least 70% in assay [3]; at most 30% in assay [6]; 30 to 70% in assay [7]; 30 to 70% in assay [8]. Further, the inhibition at 0.005 µM was determined as 53% in assay [4] and 86.5% in assay [5]. Also, the inhibition at 0.01 µM in assay [4] worked out at 78.2%; in assay [5], 99.4%.

Broadly, the inhibition is how much of the control response was suppressed.

These data come from patent EP4740948A1 (Dong Wha Pharm. Co., Ltd., priority 2023, dated 2025).
